Reference: patent US10538490B2, “Benzylaminopyridylcyclopropanecarboxylic acids, pharmaceutical compositions and uses thereof” (Boehringer Ingelheim International GmbH, priority 2016, dated 2020)

Each compound was assayed against human GPR40 receptor (Homo sapiens, UniProt O14842) (assay: IP1 accumulation measurements using the IPOne assay system). Conditions: 1321N1 cells stably expressing human GPR40 receptor, stimulation 1 h at 37° C.
Format: cell-based
Protocol: IP1 accumulation measurements using the IPOne assay system—1321N1 cells stably expressing human GPR40 receptor (Euroscreen, Belgium) are seeded 24 h before the assay in white 384-well plates in culture medium containing 10% FCS, 1% Na-Pyruvate and 400 μg/mL G418. IPi is assayed according to the manufacturer's description (Cisbio Bioassays, France). In brief, the assay is started by substitution of the culture medium by stimulation buffer (Hepes 10 mM, CaCl2 1 mM, MgCl2 0.5 mM, KCl 4.2 mM, NaCl 146 mM, glucose 5.5 mM and LiCl 50 mM, pH 7.4). Cells are stimulated for 1 h at 37° C., 5% CO2 by addition of the compounds that are diluted in stimulation buffer containing LiCl. Assays are stopped by adding HTRF-conjugates (IP1-d2 and Anti-IP1 cryptate Tb) and lysis buffer, provided by the manufacturer. After an incubation time of 1 h at room temperature plates are measured using an EnVision™, Perkin Elmer. The obtained fluorescence ratios at 665/615 […] are then used to calculate the pEC50 values using Assay Explorer 3.3 Software (Accelrys, Inc.) by interpolation using an IP1 reference curve and subsequent sigmoidal curve fitting allowing for a variable hill slope.

human GPR40 receptor, sequence (O14842 whole entry): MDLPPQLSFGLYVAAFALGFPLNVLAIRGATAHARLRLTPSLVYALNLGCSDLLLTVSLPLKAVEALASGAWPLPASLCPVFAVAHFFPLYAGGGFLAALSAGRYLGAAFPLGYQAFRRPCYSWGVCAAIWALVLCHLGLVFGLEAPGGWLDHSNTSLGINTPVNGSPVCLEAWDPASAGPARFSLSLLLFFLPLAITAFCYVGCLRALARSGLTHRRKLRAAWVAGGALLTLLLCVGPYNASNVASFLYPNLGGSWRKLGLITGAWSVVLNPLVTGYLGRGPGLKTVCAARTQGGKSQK

Structure (SMILES) | EC50 [nM]
CNC(=O)c1cc(C)c(-c2cc(CNc3ccc([C@H]4C[C@@H]4C(=O)O)cn3)c(F)cc2F)c(C)c1 [Example 102] | 420
O=C(O)[C@H]1C[C@@H]1c1ccc(NCc2cc(-c3c(Cl)cccc3Cl)ccc2F)nc1 [Example 31] | 105
COc1c(F)c(F)c(-c2cc(CNc3ccc([C@H]4C[C@@H]4C(=O)O)cn3)c(F)cc2F)c(F)c1F [Example 64] | 123
COc1cc(OC)c(Cl)c(-c2ccc(F)c(CNc3ccc([C@H]4C[C@@H]4C(=O)O)cn3)c2)c1Cl [Example 33] | 128
Cc1cc(OCC(=O)O)cc(C)c1-c1ccc(F)c(CNc2ccc([C@H]3C[C@@H]3C(=O)O)cn2)c1 [Example 17] | 353
O=C(O)[C@H]1C[C@@H]1c1ccc(NCc2cc(-c3c(F)cc(OC4CC4)cc3F)c(F)cc2F)nc1 [Example 71] | 140
N#Cc1cccc(C#N)c1-c1ccc(F)c(CNc2ccc([C@H]3C[C@@H]3C(=O)O)cn2)c1 [Example 23] | > 10000
Nc1cc(F)c(-c2ccc(F)c(CNc3ccc([C@H]4C[C@@H]4C(=O)O)cn3)c2)c(F)c1 [Example 28] | 6720
Cc1cc(OCC2(C)COC2)cc(C)c1-c1cc(CNc2ccc([C@H]3C[C@@H]3C(=O)O)cn2)c(F)cc1F [Example 87] | 89
CC(C)c1ccccc1-c1cc(CNc2ccc([C@H]3C[C@@H]3C(=O)O)cn2)c(F)cc1F [Example 96] | 114
O=C(O)[C@H]1C[C@@H]1c1ccc(NCc2cc(-c3c(F)cc(F)cc3F)c(F)cc2F)nc1 [Example 81] | 491
CNC(=O)c1cc(C)c(-c2ccc(F)c(CNc3ccc([C@H]4C[C@@H]4C(=O)O)cn3)c2)c(C)c1 [Example 59] | 375
O=C(O)[C@H]1C[C@@H]1c1ccc(NCc2cc(-c3c(F)cc(OC4CC4)cc3F)ccc2F)nc1 [Example 29] | 570
COc1cc(OC)c(F)c(-c2ccc(F)c(CNc3ccc([C@H]4C[C@@H]4C(=O)O)cn3)c2)c1F [Example 52] | 1340
Cc1cc(OCCC(C)(C)O)cc(C)c1-c1cc(CNc2ccc([C@H]3C[C@@H]3C(=O)O)cn2)ccc1C(F)(F)F [Example 5, (1S,2S)-2-(6-{[4′-(3-Hydroxy-3-methyl-butoxy)-2′,6′-dimethyl-6-trifluoromethyl-biphenyl-3-ylmethyl]-amino}-pyridin-3-yl)-cyclopropanecarboxylic Acid] | 12
Cc1cc(OCc2ccccc2)cc(C)c1-c1ccc(F)c(CNc2ccc([C@H]3C[C@@H]3C(=O)O)cn2)c1 [Example 47] | 107
Cc1cc(C(=O)N(C)C)cc(C)c1-c1ccc(F)c(CNc2ccc([C@H]3C[C@@H]3C(=O)O)cn2)c1 [Example 60] | 550
Nc1cc(F)c(-c2cc(CNc3ccc([C@H]4C[C@@H]4C(=O)O)cn3)c(F)cc2F)c(F)c1 [Example 70] | 3630
Cc1cc(OCC(C)(C)O)cc(C)c1-c1cc(CNc2ccc([C@H]3C[C@@H]3C(=O)O)cn2)c(F)cc1F [Example 83] | 104

Structure (SMILES) | EC50 [nM]
COc1cc(F)c(-c2ccc(F)c(CNc3ccc([C@H]4C[C@@H]4C(=O)O)cn3)c2)c(F)c1 [Example 19] | 2100
Cc1cc(C(=O)N(C)C)cc(C)c1-c1cc(CNc2ccc([C@H]3C[C@@H]3C(=O)O)cn2)c(F)cc1F [Example 103] | 462
Cc1cc(OCC2(C)COC2)cc(C)c1-c1ccc(F)c(CNc2ccc([C@H]3C[C@@H]3C(=O)O)cn2)c1 [Example 45] | 147
Cc1cc(C(N)=O)cc(C)c1-c1ccc(F)c(CNc2ccc([C@H]3C[C@@H]3C(=O)O)cn2)c1 [Example 34] | 612
Cc1cc(OCC2(O)CCS(=O)(=O)CC2)cc(C)c1-c1cc(CNc2ccc([C@H]3C[C@@H]3C(=O)O)cn2)c(F)cc1F [Example 100] | 101
O=C(O)[C@H]1C[C@@H]1c1ccc(NCc2cc(-c3c(F)cccc3F)c(F)cc2F)nc1 [Example 63] | 931
O=C(O)[C@H]1C[C@@H]1c1ccc(NCc2cc(-c3ccccc3C(F)(F)F)ccc2F)nc1 [Example 24] | 204
NCc1ccc(F)c(-c2cc(CNc3ccc([C@H]4C[C@@H]4C(=O)O)cn3)c(F)cc2F)c1 [Example 3, (1S,2S)-2-{6-[(5′-Aminomethyl-4,6,2′-trifluoro-biphenyl-3-ylmethyl)-amino]-pyridin-3-yl}-cyclopropanecarboxylic Acid] | > 10000
Cc1cc(C(=O)O)cc(C)c1-c1ccc(F)c(CNc2ccc([C@H]3C[C@@H]3C(=O)O)cn2)c1 [Example 27] | > 10000
COc1c(F)c(F)c(-c2ccc(F)c(CNc3ccc([C@H]4C[C@@H]4C(=O)O)cn3)c2)c(F)c1F [Example 22] | 477
N#CC1(c2ccccc2-c2ccc(F)c(CNc3ccc([C@H]4C[C@@H]4C(=O)O)cn3)c2)CC1 [Example 32] | 1940
Cc1cc(OCC2(O)CCSCC2)cc(C)c1-c1cc(CNc2ccc([C@H]3C[C@@H]3C(=O)O)cn2)c(F)cc1F [Example 98] | 102
Cc1cc(C(N)=O)cc(C)c1-c1cc(CNc2ccc([C@H]3C[C@@H]3C(=O)O)cn2)c(F)cc1F [Example 76] | 340
COc1cc(OC)c(-c2cc(CNc3ccc([C@H]4C[C@@H]4C(=O)O)cn3)c(F)cc2F)c(OC)c1 [Example 72] | 838
N#Cc1cccc(C#N)c1-c1cc(CNc2ccc([C@H]3C[C@@H]3C(=O)O)cn2)c(F)cc1F [Example 65] | > 10000
CC(C)c1ccccc1-c1ccc(F)c(CNc2ccc([C@H]3C[C@@H]3C(=O)O)cn2)c1 [Example 54] | 317
Cc1cc(OCCCS(C)(=O)=O)cc(C)c1-c1ccc(F)c(CNc2ccc([C@H]3C[C@@H]3C(=O)O)cn2)c1 [Example 12] | > 10000
O=C(O)[C@H]1C[C@@H]1c1ccc(NCc2cc(-c3c(F)cccc3F)ccc2F)nc1 [Example 20] | 2300
Cc1cc(OCC2(O)CCS(=O)(=O)CC2)cc(C)c1-c1ccc(F)c(CNc2ccc([C@H]3C[C@@H]3C(=O)O)cn2)c1 [Example 57] | 422

Results, then the compound that gave them:

EC50 [nM] | Structure (SMILES)
32 | Cc1cc(-c2ccn(C)c(=O)c2)cc(C)c1-c1ccc(F)c(CNc2ccc([C@H]3C[C@@H]3C(=O)O)cn2)c1 [Example 44]
17 | Cc1cc(-c2ccc(=O)n(C)c2)cc(C)c1-c1ccc(F)c(CNc2ccc([C@H]3C[C@@H]3C(=O)O)cn2)c1 [Example 13]
39 | Cc1cc(OCC2CCOCC2)cc(C)c1-c1cc(CNc2ccc([C@H]3C[C@@H]3C(=O)O)cn2)c(F)cc1F [Example 101]
25 | Cc1cc(-c2ccnn2C)cc(C)c1-c1ccc(F)c(CNc2ccc([C@H]3C[C@@H]3C(=O)O)cn2)c1 [Example 50]
64 | Cc1cc(OCC2(O)CCSCC2)cc(C)c1-c1ccc(F)c(CNc2ccc([C@H]3C[C@@H]3C(=O)O)cn2)c1 [Example 16]
72 | Cc1cc(-c2ccn(C)c(=O)n2)cc(C)c1-c1ccc(F)c(CNc2ccc([C@H]3C[C@@H]3C(=O)O)cn2)c1 [Example 49]
5 | Cc1cc(OCC2CCOC2)cc(C)c1-c1cc(CNc2ccc([C@H]3C[C@@H]3C(=O)O)cn2)c(F)cc1F (stereo partly shown) [Example 78]
43 | Cc1cc(-c2ccn(C)c(=O)n2)cc(C)c1-c1cc(CNc2ccc([C@H]3C[C@@H]3C(=O)O)cn2)c(F)cc1F [Example 91]
81 | Cc1cc(OCC(C)(C)C#N)cc(C)c1-c1cc(CNc2ccc([C@H]3C[C@@H]3C(=O)O)cn2)c(F)cc1F [Example 88]
11 | Cc1cc(-c2nnn(CC(C)(C)O)n2)cc(C)c1-c1ccc(F)c(CNc2ccc([C@H]3C[C@@H]3C(=O)O)cn2)c1 [Example 14]
43 | Cc1cc(OCC2CCOCC2)cc(C)c1-c1ccc(F)c(CNc2ccc([C@H]3C[C@@H]3C(=O)O)cn2)c1 [Example 58]
85 | Cc1cc(OCC2CCOC2)cc(C)c1-c1ccc(F)c(CNc2ccc([C@H]3C[C@@H]3C(=O)O)cn2)c1 (stereo partly shown) [Example 36]
48 | O=C(O)[C@H]1C[C@@H]1c1ccc(NCc2cc(-c3ccccc3C(F)(F)F)c(F)cc2F)nc1 [Example 66]
42 | Cc1cc(O[C@H]2CCOC2)cc(C)c1-c1cc(CNc2ccc([C@H]3C[C@@H]3C(=O)O)cn2)c(F)cc1F [Example 79]
50 | Cc1cc(OCCCS(C)(=O)=O)cc(C)c1-c1cccc(CNc2ccc([C@H]3C[C@@H]3C(=O)O)cn2)c1 [Example 8, (1S,2S)-2-(6-{[4′-(3-Methanesulfonyl-propoxy)-2′,6′-dimethyl-biphenyl-3-ylmethyl]-amino}-pyridin-3-yl)-cyclopropanecarboxylic Acid]
21 | Cc1cc(-c2cnccn2)cc(C)c1-c1ccc(F)c(CNc2ccc([C@H]3C[C@@H]3C(=O)O)cn2)c1 [Example 11]
29 | Cc1cc(-c2ccn(C)c(=O)c2)cc(C)c1-c1cc(CNc2ccc([C@H]3C[C@@H]3C(=O)O)cn2)c(F)cc1F [Example 86]
38 | O=C(O)[C@H]1C[C@@H]1c1ccc(NCc2ccc(C(F)(F)F)c(-c3ccc(OC(F)(F)F)cc3)c2)nc1 [Example 6, (1S,2S)-2-{6-[(4′-Trifluoromethoxy-6-trifluoromethyl-biphenyl-3-ylmethyl)-amino]-pyridin-3-yl}-cyclopropanecarboxylic Acid]
50 | COc1cc(OC)c(Cl)c(-c2cc(CNc3ccc([C@H]4C[C@@H]4C(=O)O)cn3)c(F)cc2F)c1Cl [Example 75]
57 | Cc1cc(OC2CCOCC2)cc(C)c1-c1cc(CNc2ccc([C@H]3C[C@@H]3C(=O)O)cn2)c(F)cc1F [Example 84]
